In ChEMBL document CHEMBL5252588, “Palladium-Catalyzed Synthesis, Acetylcholinesterase Inhibition, and Neuroprotective Activities of N-Aryl Galantamine Analogues” (J Nat Prod, 2023):
The source made the active and inactive calls. The rule behind the calls is not given here.

Experiments:
SH-SY5Y [1] = test: Cytotoxicity against human SH-SY5Y cells assessed as reduction in cell viability; type: toxicity, cell-based
[2] = target: Cholinesterase (Equus caballus) (UniProt P81908); test: Inhibition of equine serum BChE using butyrylthiocholine iodide as substrate at 50 to 100 uM preincubated for 20 mins followed by substrate addition and measured after 20 mins by Ellman's method; details: dose 50-100 µM, time 40.0 min
[3] = target: Acetylcholinesterase (Electrophorus electricus) (UniProt O42275); test: Inhibition of electric eel AChE using acetylthiocholine iodide as substrate at 50 to 100 uM preincubated with compounds for 20 mins followed by substrate addition and measured after 20 mins by Ellman's method relative to control; details: dose 50-100 µM, time 40.0 min
SH-SY5Y [4] = test: Neuroprotective activity against H2O2-induced injury in human SH-SY5Y cells assessed as […] in cell viability at 50 uM preincubated with compound for 24 hrs followed by H2O2-addition and measured after 4 hrs by MTT assay relative to control; type: functional; details: time 28 hrs
[5] = target: Acetylcholinesterase (Electrophorus electricus) (UniProt O42275); test: Inhibition of electric eel AChE using acetylthiocholine iodide as substrate at 50 uM preincubated with compounds for 20 mins followed by substrate addition and measured after 20 mins by Ellman's method relative to control; details: time 40.0 min
Acetylcholinesterase = Acetylcholinesterase (Electrophorus electricus, UniProt O42275); test: Inhibition of electric eel AChE using acetylthiocholine iodide as substrate preincubated with compounds for 20 mins followed by substrate addition and measured after 20 mins by Ellman's method relative to control
SH-SY5Y [6] = test: Neuroprotective activity against H2O2-induced injury in human SH-SY5Y cells assessed as decrease in caspase-3 protein expression at 50 uM preincubated with compound for 24 hrs followed by H2O2-addition and measured after 4 hrs by immunoblot analysis; type: functional, cell-based; details: time 28.0 hrs
SH-SY5Y [7] = test: Neuroprotective activity against H2O2-induced injury in human SH-SY5Y cells assessed as decrease in cleaved caspase-3 at 50 uM preincubated with compound for 24 hrs followed by H2O2-addition and measured after 4 hrs by immunoblot analysis; type: functional, cell-based; details: time 28.0 hrs
SH-SY5Y [8] = test: Neuroprotective activity against H2O2-induced injury in human SH-SY5Y cells assessed as inhibition of H2O2-induced apoptosis at 50 uM preincubated with compound for 24 hrs followed by H2O2-addition and measured after 4 hrs by TUNEL staining based analysis; type: functional, cell-based; details: time 28.0 hrs
SH-SY5Y [9] = test: Neuroprotective activity against H2O2-induced injury in human SH-SY5Y cells assessed as increase in Bcl-2 protein expression at 50 uM preincubated with compound for 24 hrs followed by H2O2-addition and measured after 4 hrs by immunoblot analysis; type: functional, cell-based; details: time 28.0 hrs

Chain of Acetylcholinesterase (O42275 whole entry): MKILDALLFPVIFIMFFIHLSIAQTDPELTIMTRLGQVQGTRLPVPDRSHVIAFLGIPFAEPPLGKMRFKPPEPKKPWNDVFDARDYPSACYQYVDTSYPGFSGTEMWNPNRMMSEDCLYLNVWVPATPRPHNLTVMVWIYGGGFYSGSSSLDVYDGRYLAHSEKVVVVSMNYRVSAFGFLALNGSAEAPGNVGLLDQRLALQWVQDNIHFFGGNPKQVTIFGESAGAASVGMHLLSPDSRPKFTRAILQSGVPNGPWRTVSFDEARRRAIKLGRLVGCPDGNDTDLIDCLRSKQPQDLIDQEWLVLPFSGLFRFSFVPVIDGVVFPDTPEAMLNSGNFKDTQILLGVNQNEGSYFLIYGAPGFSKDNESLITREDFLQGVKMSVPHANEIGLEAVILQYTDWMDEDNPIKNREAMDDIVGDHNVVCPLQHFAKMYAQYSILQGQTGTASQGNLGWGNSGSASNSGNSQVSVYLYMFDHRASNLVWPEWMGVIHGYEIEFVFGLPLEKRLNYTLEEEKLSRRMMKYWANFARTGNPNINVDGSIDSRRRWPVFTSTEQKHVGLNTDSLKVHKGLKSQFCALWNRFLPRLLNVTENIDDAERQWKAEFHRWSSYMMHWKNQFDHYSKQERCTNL
Chain of Acetylcholinesterase (Electrophorus electricus) (O42275 24-633 limits assumed): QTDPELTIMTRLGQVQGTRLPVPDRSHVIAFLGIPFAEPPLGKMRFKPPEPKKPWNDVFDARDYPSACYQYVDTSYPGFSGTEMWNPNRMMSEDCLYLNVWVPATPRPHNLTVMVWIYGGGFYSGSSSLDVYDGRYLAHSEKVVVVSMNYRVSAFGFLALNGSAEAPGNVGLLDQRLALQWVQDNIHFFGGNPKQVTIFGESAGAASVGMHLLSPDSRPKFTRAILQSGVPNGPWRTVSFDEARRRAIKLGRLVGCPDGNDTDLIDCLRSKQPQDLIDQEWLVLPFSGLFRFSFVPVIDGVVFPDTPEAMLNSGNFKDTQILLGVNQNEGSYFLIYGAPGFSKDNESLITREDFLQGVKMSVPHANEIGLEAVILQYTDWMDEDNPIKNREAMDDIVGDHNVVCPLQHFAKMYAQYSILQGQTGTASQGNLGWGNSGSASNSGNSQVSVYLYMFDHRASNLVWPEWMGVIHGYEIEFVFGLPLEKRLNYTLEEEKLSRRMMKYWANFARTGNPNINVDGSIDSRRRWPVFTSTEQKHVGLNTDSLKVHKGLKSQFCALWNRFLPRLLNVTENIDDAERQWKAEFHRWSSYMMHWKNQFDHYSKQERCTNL
Chain of Cholinesterase (Equus caballus) (P81908 whole entry): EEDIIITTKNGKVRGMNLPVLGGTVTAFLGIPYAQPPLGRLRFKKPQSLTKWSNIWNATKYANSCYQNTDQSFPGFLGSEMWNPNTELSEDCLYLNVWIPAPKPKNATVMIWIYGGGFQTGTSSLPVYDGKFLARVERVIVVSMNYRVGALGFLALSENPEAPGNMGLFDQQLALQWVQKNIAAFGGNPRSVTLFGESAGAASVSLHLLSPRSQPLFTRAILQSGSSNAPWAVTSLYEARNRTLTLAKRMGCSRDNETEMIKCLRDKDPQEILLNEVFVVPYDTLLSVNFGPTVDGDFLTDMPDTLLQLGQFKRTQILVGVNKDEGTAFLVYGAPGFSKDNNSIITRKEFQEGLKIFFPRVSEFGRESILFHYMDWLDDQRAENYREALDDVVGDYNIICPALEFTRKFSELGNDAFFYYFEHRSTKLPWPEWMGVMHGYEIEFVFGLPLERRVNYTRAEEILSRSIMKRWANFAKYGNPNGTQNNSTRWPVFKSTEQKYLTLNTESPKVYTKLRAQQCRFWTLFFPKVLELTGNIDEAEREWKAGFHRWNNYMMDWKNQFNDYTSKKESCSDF

CCCCc1ccc(N2CC[C@@]34C=C[C@H](O)C[C@@H]3Oc3c(OC)ccc(c34)C2)cc1
Activity (SH-SY5Y [1]): Toxic
inhibition [2]: inactive
inhibition [3]: < 50%

COc1ccc2c3c1O[C@H]1C[C@@H](O)C=C[C@@]31CCN(c1ccc(-c3ccccn3)cc1)C2
Activity (SH-SY5Y [1]): Toxic
inhibition [2]: inactive
Activity (SH-SY5Y [4]): 38%
inhibition [3]: < 50%

COc1ccc2c3c1O[C@H]1C[C@@H](O)C=C[C@@]31CCN(c1ncccc1F)C2
Activity (SH-SY5Y [1]): Toxic
inhibition [2]: inactive

COc1ccc2c3c1O[C@H]1C[C@@H](O)C=C[C@@]31CCN(C)C2 [GALANTAMINE]
Activity (SH-SY5Y [4]): 44%

COc1ccc2c3c1O[C@H]1C[C@@H](O)C=C[C@@]31CCN(c1ccc3ncccc3c1)C2
inhibition [2]: inactive
Activity (SH-SY5Y [4]): 56%
inhibition [3]: < 50%

COc1ccc2c3c1O[C@H]1C[C@@H](O)C=C[C@@]31CCN(c1ccc(C)cc1)C2
Activity (SH-SY5Y [1]): Toxic
inhibition [2]: inactive
inhibition [3]: < 50%

COc1ccc2c3c1O[C@H]1C[C@@H](O)C=C[C@@]31CCN(c1ncccc1C)C2
inhibition [5]: > 50%
IC50 (Acetylcholinesterase): 1.7 µM
inhibition [2]: inactive
Activity (SH-SY5Y [4]): 37%

COc1ccc2c3c1O[C@H]1C[C@@H](O)C=C[C@@]31CCN(c1ccc(F)cc1)C2
inhibition [2]: inactive
Activity (SH-SY5Y [4]): 39%
inhibition [3]: < 50%

COc1ccc2c3c1O[C@H]1C[C@@H](O)C=C[C@@]31CCN(c1cccc(C(F)(F)F)c1)C2
inhibition [2]: inactive
Activity (SH-SY5Y [4]): 53%
inhibition [3]: < 50%

CCOc1ccc(N2CC[C@@]34C=C[C@H](O)C[C@@H]3Oc3c(OC)ccc(c34)C2)nc1
inhibition [2]: inactive
Activity (SH-SY5Y [4]): 41%

COc1ccc2c3c1O[C@H]1C[C@@H](O)C=C[C@@]31CCN(c1ccccn1)C2
inhibition [5]: > 50%
IC50 (Acetylcholinesterase): 3.6 µM
inhibition [2]: inactive
Activity (SH-SY5Y [4]): 59%

CCc1ccc(-c2ccc(N3CC[C@@]45C=C[C@H](O)C[C@@H]4Oc4c(OC)ccc(c45)C3)cc2)cc1
Activity (SH-SY5Y [1]): Toxic
inhibition [2]: inactive
inhibition [3]: < 50%

COc1ccc2c3c1O[C@H]1C[C@@H](O)C=C[C@@]31CCN(c1ccc3c(c1)OCO3)C2
inhibition [2]: inactive
Activity (SH-SY5Y [4]): 39%
inhibition [3]: < 50%

COc1ccc2c3c1O[C@H]1C[C@@H](O)C=C[C@@]31CCN(c1ncccn1)C2
inhibition [2]: inactive
Activity (SH-SY5Y [4]): 60%

COc1ccc(N2CC[C@@]34C=C[C@H](O)C[C@@H]3Oc3c(OC)ccc(c34)C2)cc1
inhibition [2]: inactive
Activity (SH-SY5Y [4]): 37%
inhibition [3]: < 50%

COc1ccnc(N2CC[C@@]34C=C[C@H](O)C[C@@H]3Oc3c(OC)ccc(c34)C2)c1
Activity (SH-SY5Y [6]): inactive
inhibition [5]: > 50%
IC50 (Acetylcholinesterase): 0.19 µM
Activity (SH-SY5Y [7]): Active
Activity (SH-SY5Y [8]): Active
inhibition [2]: inactive
Activity (SH-SY5Y [4]): 70%
Activity (SH-SY5Y [9]): Active

COc1cccnc1N1CC[C@@]23C=C[C@H](O)C[C@@H]2Oc2c(OC)ccc(c23)C1
inhibition [5]: > 50%
IC50 (Acetylcholinesterase): 27 µM
inhibition [2]: inactive
Activity (SH-SY5Y [4]): 40%

COc1cccc(N2CC[C@@]34C=C[C@H](O)C[C@@H]3Oc3c(OC)ccc(c34)C2)n1
inhibition [2]: inactive
Activity (SH-SY5Y [4]): 66%

COc1ccc2c3c1O[C@H]1C[C@@H](O)C=C[C@@]31CCN(c1cccc(C)n1)C2
inhibition [5]: > 50%
IC50 (Acetylcholinesterase): 17 µM
inhibition [2]: inactive
Activity (SH-SY5Y [4]): 55%

COc1cccc(N2CC[C@@]34C=C[C@H](O)C[C@@H]3Oc3c(OC)ccc(c34)C2)c1
inhibition [2]: inactive
Activity (SH-SY5Y [4]): 40%
inhibition [3]: < 50%

COc1ccc2c3c1O[C@H]1C[C@@H](O)C=C[C@@]31CCN(c1ccc(OC(C)C)nc1)C2
inhibition [2]: inactive
Activity (SH-SY5Y [4]): 42%

COc1ccc2c3c1O[C@H]1C[C@@H](O)C=C[C@@]31CCN(c1cc(C)ccn1)C2
inhibition [2]: inactive
Activity (SH-SY5Y [4]): 41%

COc1ccc2c3c1O[C@H]1C[C@@H](O)C=C[C@@]31CCN(c1ccc(C(F)(F)F)nc1)C2
inhibition [2]: inactive
Activity (SH-SY5Y [4]): 63%

COc1ccc2c3c1O[C@H]1C[C@@H](O)C=C[C@@]31CCN(c1cc(C(F)(F)F)cc(C(F)(F)F)c1)C2
Activity (SH-SY5Y [1]): Toxic
inhibition [2]: inactive
inhibition [3]: < 50%

COc1ccc2c3c1O[C@H]1C[C@@H](O)C=C[C@@]31CCN(c1ccc(C(C)(C)C)cc1)C2
Activity (SH-SY5Y [1]): Toxic
inhibition [2]: inactive
inhibition [3]: < 50%
